Test results from patent publication US20120040951A1, “HETEROARYL COMPOUNDS USEFUL AS RAF KINASE INHIBITORS” (priority 2008, published 2012).
pEC50, pIC50: −log10 of the molar value.

Key:
V599E Raf = V599E Raf (Homo sapiens, UniProt P15056, V600E); experiment: Biochemical FRET assay, mutant Raf (phosphorylation of MEK); conditions: 0.125 nM V599E Raf, 100 nM biotin-MEK, 25 μM ATP, read-out: Raf (mut) inhibition
Summary of the method: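 V599E Raf (0.125 nM) preincubated 20 min with inhibitor and 100 nM biotin-MEK in HEPES pH 7.4 with Mg2+/Mn2+, then reacted with 25 μM ATP for 60 min at room temperature. EDTA-stopped; phospho-MEK1/2 (Ser217/221) detected by Eu/APC TR-FRET after 90 min.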

[1] = tested on: phospho-ERK in melanoma derived WM-266-4 cells; experiment: Mechanistic cellular assay for Raf kinase activity (phospho-ERK, Bio-Plex); format: cell-based; conditions: Homo sapiens, treated 1-2 hr at 37° C., serum free medium, read-out: pERK EC50
Summary of the method: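 WM-266-4 melanoma cells (wild-type/V600D BRaf) grown overnight in 10% FBS RPMI, then treated 1–2 h at 37 °C in serum-free RPMI with eight 3-fold dilutions of compound (from 5 mM DMSO stock, 1000× dilution). Lysate phospho-ERK1,2 quantified by Bio-Plex bead immunoassay.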

V599E Raf, sequence (P15056 whole entry V600E): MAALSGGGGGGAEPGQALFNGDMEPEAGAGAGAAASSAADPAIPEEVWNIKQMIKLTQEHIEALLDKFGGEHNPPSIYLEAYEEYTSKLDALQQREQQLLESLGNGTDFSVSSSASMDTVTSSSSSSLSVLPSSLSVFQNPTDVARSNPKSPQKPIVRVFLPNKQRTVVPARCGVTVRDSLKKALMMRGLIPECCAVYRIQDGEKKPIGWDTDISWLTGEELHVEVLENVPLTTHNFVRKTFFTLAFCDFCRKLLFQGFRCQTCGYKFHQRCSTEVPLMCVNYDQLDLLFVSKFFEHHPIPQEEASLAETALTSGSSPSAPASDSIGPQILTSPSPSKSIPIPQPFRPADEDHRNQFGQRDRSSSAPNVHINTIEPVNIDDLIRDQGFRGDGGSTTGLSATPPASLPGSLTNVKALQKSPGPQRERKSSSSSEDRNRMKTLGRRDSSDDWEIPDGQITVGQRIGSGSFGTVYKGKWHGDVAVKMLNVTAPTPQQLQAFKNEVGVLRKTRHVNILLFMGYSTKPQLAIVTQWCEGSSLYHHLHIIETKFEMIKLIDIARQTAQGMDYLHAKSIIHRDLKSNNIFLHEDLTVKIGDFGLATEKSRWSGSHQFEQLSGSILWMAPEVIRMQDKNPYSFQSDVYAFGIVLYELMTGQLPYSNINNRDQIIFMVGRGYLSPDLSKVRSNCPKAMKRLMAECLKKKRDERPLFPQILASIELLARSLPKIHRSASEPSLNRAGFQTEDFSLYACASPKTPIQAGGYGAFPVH

SMILES	pIC50 (V599E Raf)	pEC50 [1]
CC(NC(=O)c1cnn2ccccc12)c1ncc(C(=O)Nc2cc(C(F)(F)F)c(Cl)cn2)s1 (centres unmarked) [Example 223]	6.00 to 7.00	≥ 7.00
C[C@@H](NC(=O)c1cccc(N2CCCCC2)n1)c1ncc(C(=O)Nc2cc(C(F)(F)F)c(Cl)cn2)s1 [Example 94]	6.00 to 7.00	5.00 to 6.00
C[C@@H](NC(=O)c1cc2c(cn1)ncn2C1CN(C(=O)OC(C)(C)C)C1)c1cnc(Nc2ccc(C(F)(F)F)cc2)s1 [Example 24]	≥ 7.00	≥ 7.00
C[C@@H](NC(=O)c1cnn(-c2ccccc2)c1N)c1ncc(C(=O)Nc2cc(C(F)(F)F)c(Cl)cn2)s1 [Example 121]	6.00 to 7.00	6.00 to 7.00
CC(NC(=O)c1cc2c(cn1)ncn2C)c1ncc(C(=O)Nc2cc(C(C)(C)C)on2)s1 (centres unmarked) [Example 43]	≥ 7.00	≥ 7.00
CCc1nc(C(C)(C)C)ncc1Nc1ncc(C(C)NC(=O)c2cc3c(cn2)ncn3C)s1 (centres unmarked) [Example 295]	6.00 to 7.00	≥ 7.00
CC(NC(=O)c1cc2c(cn1)ncn2C)c1cnc(Nc2cc(C(C)(C)C)ccc2F)s1 (centres unmarked) [Example 279]	≥ 7.00	≥ 7.00
COC(=O)c1cc(Nc2ncc(C(C)NC(=O)c3cc4c(cn3)ncn4C)s2)cc(C(C)(C)C)c1 (centres unmarked) [Example 351]	≥ 7.00	6.00 to 7.00
C[C@@H](NC(=O)c1cn(-c2ccncc2)cn1)c1ncc(C(=O)Nc2cc(C(F)(F)F)c(Cl)cn2)s1 [Example 148]	≥ 7.00	5.00 to 6.00
CCN1CC(n2cnc3cnc(C(=O)N[C@H](C)c4cnc(Nc5ccc(C(F)(F)F)cc5)s4)cc32)C1 [Example 30]	≥ 7.00	≥ 7.00
CC(NC(=O)c1ccc2ncsc2c1)c1cnc(Nc2ccc(C(F)(F)F)cc2)s1 (centres unmarked) [Example 74]	≥ 7.00	5.00 to 6.00
CCn1cnc2cnc(C(=O)NC(C)c3cnc(Nc4ccc(Cl)c(C(F)(F)F)c4)cn3)cc21 (centres unmarked) [Example 233]	≥ 7.00	6.00 to 7.00
C[C@@H](NC(=O)c1cc2c(cn1)ncn2C)c1cnc(Nc2ccc(C(F)(F)F)cc2)s1 [Example 4]	≥ 7.00	≥ 7.00
CC(NC(=O)c1cn2c(C(F)(F)F)cnc2cn1)c1cnc(Nc2ccc(C(F)(F)F)cc2)s1 (centres unmarked) [Example 300]	≥ 7.00	5.00 to 6.00
C[C@@H](NC(=O)c1ccc2c(c1)OCCN2C)c1ncc(C(=O)Nc2cc(C(F)(F)F)c(Cl)cn2)s1 [Example 71]	≥ 7.00	5.00 to 6.00
CC(NC(=O)c1cc2nc[nH]c2cn1)c1cnc(Nc2ccc(C(F)(F)F)cc2)s1 (centres unmarked) [Example 5]	≥ 7.00	6.00 to 7.00
CCN1CCn2c(C(=O)NC(C)c3cnc(Nc4ccc(C(F)(F)F)cc4)s3)cnc2C1 (centres unmarked) [Example 318]	≥ 7.00	5.00 to 6.00
COc1ccc(C(F)(F)F)cc1NC(=O)c1cc([C@@H](C)NC(=O)c2cnn3ccccc23)no1 [Example 214]	6.00 to 7.00	6.00 to 7.00
CC(NC(=O)c1cc2c(cn1)ncn2C)c1cnc(Nc2ccc(C(F)(F)F)cn2)cn1 (centres unmarked) [Example 262]	≥ 7.00	6.00 to 7.00
Cc1nc(C)c(C(=O)N[C@H](C)c2ncc(C(=O)Nc3cc(C(F)(F)F)c(Cl)cn3)s2)s1 [Example 101]	≥ 7.00	5.00 to 6.00
C[C@@H](NC(=O)c1cnn2ccccc12)c1cc(C(=O)Nc2ccc(Cl)c(C(F)(F)F)c2)on1 [Example 220]	≥ 7.00	6.00 to 7.00
C[C@@H](NC(=O)c1cccc(N2CCOCC2)n1)c1ncc(C(=O)Nc2cc(C(F)(F)F)c(Cl)cn2)s1 [Example 90]	≥ 7.00	6.00 to 7.00
CCn1cnc2cnc(C(=O)NC(C)c3cnc(Nc4ccc(C(F)(F)F)cc4)s3)cc21 (centres unmarked) [Example 6]	≥ 7.00	≥ 7.00

SMILES	pIC50 (V599E Raf)	pEC50 [1]
Cc1c(C(=O)NC(C)c2cnc(Nc3ccc(C(F)(F)F)cc3)s2)cnn1C (centres unmarked) [Example 82]	≥ 7.00	6.00 to 7.00
CC(NC(=O)c1cc2c(cn1)nc(N)n2C)c1cnc(Nc2ccc(C(F)(F)F)cc2)s1 (centres unmarked) [Example 199]	≥ 7.00	≥ 7.00
CC(NC(=O)c1cc2c(cn1)ncn2CCN(C)C)c1cnc(Nc2ccc(C(F)(F)F)cc2)s1 (centres unmarked) [Example 7]	≥ 7.00	≥ 7.00
C[C@@H](NC(=O)c1ccc2[nH]nnc2c1)c1ncc(C(=O)Nc2cc(C(F)(F)F)c(Cl)cn2)s1 [Example 57]	≥ 7.00	5.00 to 6.00
CCN1CC[C@@H](n2cnc3cnc(C(=O)N[C@H](C)c4cnc(Nc5ccc(C(F)(F)F)cc5)s4)cc32)C1 [Example 28]	≥ 7.00	≥ 7.00
CC(NC(=O)c1cc2cn(C)nc2cn1)c1cnc(Nc2ccc(C(F)(F)F)cc2)s1 (centres unmarked) [Example 203]	≥ 7.00	≥ 7.00
CNCc1c(C(=O)N[C@H](C)c2ncc(C(=O)Nc3cc(C(F)(F)F)c(Cl)cn3)s2)cnn1C [Example 129]	5.00 to 6.00	5.00 to 6.00
CCn1cc2cc(C(=O)NC(C)c3cnc(Nc4ccc(C(F)(F)F)cc4)s3)ncc2n1 (centres unmarked) [Example 207]	≥ 7.00	6.00 to 7.00
C[C@@H](NC(=O)c1csc(-c2ccncc2)n1)c1ncc(C(=O)Nc2cc(C(F)(F)F)c(Cl)cn2)s1 [Example 97]	≥ 7.00	5.00 to 6.00
CCn1cnc2cnc(C(=O)NC(C)c3cnc(Nc4cnc(C(C)(C)C)nc4)s3)cc21 (centres unmarked) [Example 285]	≥ 7.00	≥ 7.00
C[C@@H](NC(=O)c1cnn2ccccc12)c1cc(C(=O)Nc2cccc(OC(F)(F)F)c2)on1 [Example 217]	≥ 7.00	6.00 to 7.00
CC(NC(=O)c1cc(N)ccn1)c1ncc(C(=O)Nc2cc(C(F)(F)F)c(Cl)cn2)s1 (centres unmarked) [Example 87]	6.00 to 7.00	5.00 to 6.00
C[C@@H](NC(=O)c1cnn(-c2ccccn2)c1)c1ncc(C(=O)Nc2cc(C(F)(F)F)c(Cl)cn2)s1 [Example 119]	≥ 7.00	5.00 to 6.00
CC(C)N1CC(n2cnc3cnc(C(=O)N[C@H](C)c4cnc(Nc5ccc(C(F)(F)F)cc5)s4)cc32)C1 [Example 183]	≥ 7.00	≥ 7.00
CC(C)Oc1cc(C(F)(F)F)ccc1Nc1ncc(C(C)NC(=O)c2cc3c(cn2)ncn3C)s1 (centres unmarked) [Example 289]	≥ 7.00	6.00 to 7.00
Cc1nc2cc(C(=O)N[C@H](C)c3ncc(C(=O)Nc4cc(C(F)(F)F)c(Cl)cn4)s3)ccc2n1CCO [Example 52]	≥ 7.00	5.00 to 6.00
Cc1nn(C)cc1C(=O)N[C@H](C)c1ncc(C(=O)Nc2cc(C(F)(F)F)c(Cl)cn2)s1 [Example 123]	6.00 to 7.00	5.00 to 6.00
CC(=O)N1CCn2c(C(=O)N[C@H](C)c3ncc(C(=O)Nc4cc(C(F)(F)F)c(Cl)cn4)s3)cnc2C1 [Example 316]	6.00 to 7.00	5.00 to 6.00
O=C(NCc1cnc(Nc2ccc(C(F)(F)F)cc2)s1)c1ccc2ncccc2c1 [Example 189]	≥ 7.00	5.00 to 6.00
C[C@@H](NC(=O)c1cc2c(cn1)ncn2C1CCC1)c1cnc(Nc2ccc(C(F)(F)F)cc2)cn1 (single isomer, unassigned) [Example 188]	≥ 7.00	≥ 7.00
CCn1cnc2cnc(C(=O)NC(C)c3cnc(Nc4ccc(C(F)(F)F)nc4)s3)cc21 (centres unmarked) [Example 291]	≥ 7.00	6.00 to 7.00
C[C@@H](NC(=O)c1cnc(C#N)n1C)c1ncc(C(=O)Nc2cc(C(F)(F)F)c(Cl)cn2)s1 [Example 150]	≥ 7.00	5.00 to 6.00
CC(NC(=O)c1cc2c(cn1)ncn2C)c1cnc(Nc2cccc(C(C)(C)C(F)(F)F)c2)cn1 (centres unmarked) [Example 273]	≥ 7.00	≥ 7.00
